These results are taken from patent US20250368624A1, “M24B AMINOPEPTIDASE INHIBITORS FOR CARD8 INFLAMMASOME ACTIVATION” (Memorial Sloan-Kettering Cancer Center, priority 2022, published 2025).

Structures are written as SMILES.

The test system of data set [1] is human resting T cells. The data set can be described thus: GSDMD cleavage in human resting T cells. It counts as cell-based. Conditions: 20 μM, 24 h. The source says:
Human primary cell isolation and culture. Isolated human primary cells were obtained from Astarte Biologics. All cells were >90% purity, as validated by flow cytometry by Astarte Biologics. T cells were thawed in RPMI-1640 medium supplemented with 10% FBS and cultured in RPMI-1640 medium, 10% fetal bovine serum (FBS), and 30 U/mL IL-2 (Peprotech).
(§1) LDH cytotoxicity and immunoblotting assays. HEK293T cells were transiently transfected and treated with inhibitors as indicated. MV4;11, OCI AML2, THP-1, and RAW264.7 cells were plated in 12-well culture plates at 5×10^5 cells/well and treated as indicated. Supernatants were analyzed for LDH activity using the Pierce LDH Cytotoxicity Assay Kit (Life Technologies). LDH activity was quantified relative to a lysis control where cells were lysed in 80 μL of a 9% Triton X-100 solution. For immunoblotting, cells were washed 2× in PBS (pH=7.4), resuspended in PBS, and lysed by sonication. Protein concentrations were determined and normalized using the DCA Protein Assay kit (Bio-Rad). The samples were separated by SDS-PAGE, immunoblotted, and visualized using the Odyssey Imaging System (Li-Cor).

In data set [2] the test system is OCI-AML2 cells. The data set can be described thus: Propidium iodide uptake, OCI-AML2 cells. Conditions: 6.25 μM, compared to CQ31. The data set is classed as cell-based. On the procedure: (§2) Propidium iodideflux analysis. 2×10^4 MV4;11 or OCI-AML2 cells were plated in 384-well, black, clear-bottom plate (Corning) in RPMI medium. Cells were then treated as indicated and propidium iodide (PI) was added at a final concentration of 10 μM. PI fluorescence was measured at (Ex/Em: 535/617 nm) recorded at 37° C. every 5 mins in a Cytation 5 Cell Imaging Multi-Mode Reader (BioTek). The obtained measurements were baseline corrected to vehicle/DMSO and normalized to maximum response.

Data set [3] has as its system MV4;11 CASP1-/- cells. In words: CellTiter-Glo cell viability, CASP1-/- MV4;11 cells. The data set is classed as cell-based. The settings on record: Homo sapiens, MV4-11; 24 h, CTG. As for the experimental part: Cloning. CASP1^−/− MV4;11 cells^12; CARD8^−/− MV4;11, THP-1, OCI-AML2 cells^14; DPP8/9^−/− THP-1^12; PEPD^−/−, XPNPEP1^−/−, PEPD XPNPEP1^−/− THP-1 cells were generated. Plasmids for CARD8 variants, CASP1, GSDMD, dTAG-CARD8^ZUC were cloned as described previously (Hollingsworth et al., 2021; Johnson et al., 2018; Sharif et al., 2021).
CellTiter-Glo cell viability and CytoTox-Fluor cell death assays. Cells were plated (2,000 cells per well) in white, 384-well clear-bottom plates (Corning) using an EL406 Microplate Washer/Dispenser (BioTek) in 25 μL final volume of medium. To the cell plates were added compounds at different concentrations using a pintool (CyBio) and the plates were allowed to incubate in the incubator. After incubation for indicated times, CytoTox-Fluor reagent (Promega, G9262) was added according to the manufacturer's protocol. The assay plates were then incubated for another 30 min before fluorescence was recorded using a Cytation 5 Cell Imaging Multi-Mode Reader (BioTek). Next, CellTiter-Glo reagent (Promega, G7573) was subsequently added to the assay plates following the manufacturer's protocol. Assay plates were shaken on an orbital shaker for 2 min and incubated at 25° C. for 10 min. Luminescence was then read using a Cytation 5 Cell Imaging Multi-Mode Reader (BioTek).

Data set [4] can be described thus: Stability in cell culture supernatants. The data set is classed as in vitro ADME. The settings on record: cell culture supernatants.
Data set [5] has as its system MV4;11 cells. The data set can be described thus: Propidium iodide uptake, MV4;11 cells (WT, CASP1-/-, CARD8-/-). The data set is classed as cell-based. Conditions: MV4;11 WT vs CASP1-/- or CARD8-/-, 6.25 μM. As for the experimental part: as §2
Data set [6] relates to primary bone marrow-derived macrophages (BMDMs) and mouse RAW264.7 cells. In words: LDH release and GSDMD cleavage in BMDMs and RAW264.7 cells (mouse NLRP1). Conditions: VbP 10 μM, CQ31/CQ80 20 μM, 24 h. It counts as cell-based. As for the experimental part: Mouse BMDM isolation and culture. Bone marrow was harvested from the femurs and tibias of 7-12-week-old C57BL/6J mice. Briefly, femurs and tibias were harvested from mice and crushed with a mortar and pestle in cold 1×PBS supplemented with 2.5% FBS. The mixture was passed through a 70-μm nylon cell strainer. RBCs were lysed for 4-5 min on ice in 1×RBC lysis buffer (Biolegend) and cells were centrifuged at 300×g for 5 min at 4° C. The cell pellet was washed in cold 1×PBS supplemented with 2.5% FBS before being passed again through in a 70-μm nylon cell strainer and counted. Counted cells were plated on non-tissue culture 10-cm plates at 5-10×10^6 cells per plate in DMEM supplemented with 10% FBS and 15-20% L-cell media. Cells were incubated at 37° C. for 6 days before replating and assaying as indicated.
as §1

Data set [7] is described as follows: De-esterification in cell culture. The data set is classed as in vitro ADME. Conditions: after 24 h.

`COC(=O)[C@H](CC(C)C)NC(=O)[C@@H]1CCCN1C(=O)[C@@H](O)[C@H](N)CC(C)C` [CQ80, Methyl ((2S,3R)-3-amino-2-hydroxy-5-methylhexanoyl)-L-prolyl-L-leucinate]: the GSDMD cleavage entry in data set [1] is reported as “induced GSDMD cleavage”. The “lytic cell death by uptake of propidium iodide” value in data set [2] is “more rapid lytic cell death”. For the same molecule, the IC50 in data set [3] was over 20 µM. In addition, the “remained intact after 24 h” value in data set [4] (24 h) is given as about 50%. In addition, the PI uptake result in data set [5] was “induced PI uptake in WT, but not CASP1−/− or CARD8−/−”. Also, the “pyroptosis (LDH release and GSDMD cleavage)” value in data set [6] is given as “only VbP induced pyroptosis”.
As for `COC(=O)[C@@H]1CCCN1C(=O)[C@@H](O)[C@H](N)CC(C)C` [CQ31], the GSDMD cleavage result in data set [1] is listed as “induced GSDMD cleavage”. Further, in data set [7], the “de-esterification to CQ04 in cell culture” value was “completely de-esterified”. Moreover, the IC50 in data set [3] was over 100 µM. The “time to conversion to CQ04” value in data set [4] is at most 30 min. Besides, the PI uptake entry in data set [5] is “induced PI uptake in WT, but not CASP1−/− or CARD8−/−”. Also, in data set [6], the “pyroptosis (LDH release and GSDMD cleavage)” value was “only VbP induced pyroptosis”.
